Results reported in the NIST ThermoML archive (doi:10.1021/je800972b).
Numbers after ± are expanded uncertainties.

Tests used:
[1] = xn = mol fraction of the nth substance listed; conditions: 298.15 K, 101 kPa, Liquid, Vibrating tube method
[2] = 298.15 K; 101.33 kPa; Liquid

SMILES: C=COCCC [propyl vinyl ether] + Cc1ccccc1
- mass density ([1]; x1 = 0.0494): 857.3 ± 0.22 kg/m3
- mass density ([1]; x1 = 0.1002): 852.46 ± 0.22 kg/m3
- mass density ([1]; x1 = 0.1995): 843.05 ± 0.22 kg/m3
- mass density ([1]; x1 = 0.2999): 833.4 ± 0.22 kg/m3
- mass density ([1]; x1 = 0.3993): 823.66 ± 0.22 kg/m3
- mass density ([1]; x1 = 0.5002): 813.73 ± 0.22 kg/m3
- mass density ([1]; x1 = 0.5999): 803.77 ± 0.22 kg/m3
- mass density ([1]; x1 = 0.6998): 793.65 ± 0.22 kg/m3
- mass density ([1]; x1 = 0.7999): 783.69 ± 0.22 kg/m3
- mass density ([1]; x1 = 0.8993): 773.56 ± 0.22 kg/m3
- mass density ([1]; x1 = 0.95): 768.31 ± 0.22 kg/m3

SMILES: Cc1ccccc1 [toluene]
- mass density [2]: 862.23 ± 0.18 kg/m3

SMILES: CCCO [propan-1-ol]
- mass density [2]: 800.61 ± 0.23 kg/m3

SMILES: C=COCCC [propyl vinyl ether]
- mass density [2]: 762.69 ± 0.26 kg/m3
